Reference: US20230069722A1, “TUBULYSINS AND PROTEIN-TUBULYSIN CONJUGATES” (priority 2020, published 2023)
Like-named read-outs stand apart in the source and are kept apart here.

Columns and labels:
HCT15 cells = test: MDR cell based killing assay, HCT15 cells with or without Verapamil (CellTiter-Glo); parameters: species or system human; details: for IC50: Homo sapiens
Description: To test the ability of the disclosed tubulysin payloads or prodrug payloads to kill human cell lines, an in vitro cytotoxicity assay can be performed. In vitro cytotoxicity of the disclosed payloads, as well as reference compounds, are evaluated using the CellTiter-Glo Assay Kit (Promega, Cat # G7573), in which the quantity of ATP present is used to determine the number of viable cells in culture. For the assay, C4-2, HEK293, or T47D cells are seeded at 4000 cells/well on Nunclon white 96-well plates in complete growth medium (DME high glucose:Ham's F12 at 4:1, 10% FBS, 100 units/ml Penicillin, 100 ug/ml streptomycin, 53 ug/ml glutatmine, 10 ug/ml insulin, 220 ng/ml biotin, 12.5 pg/ml T3, 12.5 ug/ml Adenine, 4 ug/ml transferrin for C42 cells; DME high glucose, 10% FBS, 100 units/ml Penicillin, 100 ug/ml streptomycin, 53 ug/ml glutatmine for HEK293; RPMI, 10% FBS, 100 units/ml Penicillin, 100 ug/ml streptomycin, 53 ug/ml glutatmine, 10 ug/ml insulin, 10 mM HEPEs, 200 nM Sodium Pyruvate for T47D cells) and grown overnight at 37° C. in 5% CO2. For cell viability curves, 1:3 serially diluted payloads are added to the cells at final concentrations ranging from 100 nM to 15 pM, including a no treatment control group, and are then incubated for 5 days. After the 5-day incubation, cells are incubated at room temperature with 100 μL of CellTiter-Glo reagents for 10 minutes. Relative luminescence units (RLU) can be determined on a Victor plate reader (PerkinElmer). The IC50 values are determined from a four-parameter logistic equation over a 10-point response curve (GraphPad Prism). All IC50 values are expressed in molar (M) concentration. The percent cell killing (% kill) at the maximum concentration tested is estimated from the following formula (100−% viable cells). Averages±standard deviation (SD) can be included where replicate experiments are performed.
In vitro cytotoxicity of the disclosed payloads as well as reference compounds are evaluated similarly as described above except using 1000 HCT15 cells, a colorectal carcinoma cell line, in growth medium (RPMI, 10% FBS, 100 units/ml Penicillin, 100 ug/ml streptomycin, 53 ug/ml glutatmine) with or without 5 ug/mL of Verapamil.
For each payload or prodrug payload, the HCT-15 IC50 in the absence of Verapamil is divided by the HCT-15 IC50 in the presence of Verapamil (HCT-15 IC50/HCT-15+Verapamil IC50). […] The reference compound, (MMAE), can have a ratio of 23.7. […]

[1] = test system: SK-BR-3 human breast adenocarcinoma cell line; test: SK-BR-3 anti-proliferation / cell kill assay (CellTiter-Glo, 144 hrs); format: cell-based
Description: Anti-proliferation assays were performed using a SK-BR-3 human breast adenocarcinoma (pleural effusion) cell line. The cells were grown in McCoy's 5a Medium supplemented with 10% FBS, penicillin/streptomycin and L-glutamine. Cells were seeded 1000/well in 96-well plate in 80ul complete growth media one day prior to adding ADCs and incubated at 37° C. 5% CO2 overnight.
The ADCs were 1:3 serially diluted 10 points in assay media (Opti-MEM+0.1% BSA). The concentrations of the testing ADCs cover the range of 1 nM to ˜1000 nM and also starting from different concentrations based on the cell killing potency in order to see EC50 covers, leaving the last well (10th) as blank (no ADC or compound). ADCs were first 1:3 serially diluted 10 points in DMSO starting from […] (the starting concentration of each ADC is different according to the EC50s), leaving the last well as blank (containing only DMSO). 10 μl DMSO-diluted compound was transferred to 990 μl assay media (Opti-MEM+0.1% BSA) in a 96-well deep well dilution plate. 20 μl assay media-diluted ADC was added to cells. Cells were incubated at 37° C. […] for 6 days (144 hrs). Plates were developed by adding 100 μl CTG reagent/well to the cells CellTiter-Glo®, from Promega, Cat. No G7573), shaken at room temperature for 10 min, sealed with white adhesive bottom seal and luminescence was read with Envision. Cell kill %=[1−(T144sample−T144blank)/(T144DMSO−T144blank)]×100%, wherein T144 is the data at 144 hours.
The table below provides the drug-antibody ratios (DARs) for conjugates 1-37, along with the EC50 results from the SKBR assays for the same conjugates. The following linker-payloads (from Table P1) were prepared as described in PCT/US2019/068185, the content of which is hereby incorporated by reference in its entirety: LP4-Ve, LP4-Ve, LP25-Ve, LP25-Ve, LP26-Ve, LP26-Ve, LP17-Ve, LP13-Ve, LP19-Ve, LP2-Ve, LP21-Ve, LP6-Vb, LP24-Vb, LP23-Vb, and LP15-VIh.

[2] = HCT-15, read-out: HCT-15 with verapamil IC50

For CCCCCCN(C(=O)[C@@H](NC(=O)[C@H]1CCCCN1C)[C@@H](C)CC)[C@H](C[C@@H](OC(C)=O)c1nc(C(=O)N[C@@H](Cc2ccc(NC(=O)CN)c(F)c2)CC(C)(C)C(=O)O)cs1)C(C)C [Compound P25, (4S)-4-({2-[(1R,3R)-1-(acetyloxy)-3-[(2S,3S)—N-hexyl-3-methyl-2-{[(2R)-1-methylpiperidin-2-yl]formamido}pentanamido]-4-methylpentyl]-1,3-thiazol-4-yl}formamido)-5-[4-(2-aminoacetamido)-3-fluorophenyl]-2,2-dimethylpentanoic Acid], the IC50 (HCT15 cells; HCT-15, read-out: HCT-15 IC50) was 0.08 nM, the IC50 (HCT15 cells; [2]) was 0.04 nM and the “HCT-15 with verapamil Ratio to Xa = H” value (HCT15 cells; IC50 ratio to parent payload with Xa = H, with verapamil) was 4.0x. For the same compound, the “HCT-15 Ratio to Xa = H” value (HCT15 cells; IC50 ratio to parent payload with Xa = H, without verapamil) was 4.0x, the IC50 ([1]; Homo sapiens, SK-BR-3, read-out: SK-BR-3 IC50) was 0.03 nM and the “SK-BR-3 Ratio to Xa = H” value ([1]; IC50 ratio to parent payload with Xa = H) was 1.9x.

With CCCCCCN(C(=O)[C@@H](NC(=O)[C@H]1CCCCN1C)[C@@H](C)CC)[C@H](C[C@@H](OC(=O)NCCOCCOCCOCCN)c1nc(C(=O)N[C@@H](Cc2ccc(F)cc2)CC(C)(C)C(=O)O)cs1)C(C)C [Compound P11, (4S)-4-({2-[(1R,3R)-1-{[(2-{2-[2-(2-aminoethoxy)ethoxy]ethoxy}ethyl)carbamoyl]oxy}-3-[(2S,3S)—N-hexyl-3-methyl-2-{[(2R)-1-methylpiperidin-2-yl]formamido}pentanamido]-4-methylpentyl]-1,3-thiazol-4-yl}formamido)-5-(4-fluorophenyl)-2,2-dimethylpentanoic Acid] the IC50 (HCT15 cells; HCT-15, read-out: HCT-15 IC50) was 157 nM.

For C#CCCCON(C(=O)[C@@H](NC(=O)[C@H]1CCCCN1C)[C@@H](C)CC)[C@H](C[C@@H](OC(C)=O)c1nc(C(=O)N[C@@H](Cc2ccc(NC(=O)[C@H](N)CCC(=O)O)cc2)CC(C)(C)C(=O)O)cs1)C(C)C [Compound P41, (4S)-4-({2-[(1R,3R)-1-(acetyloxy)-4-methyl-3-[(2S,3S)-3-methyl-2-{[(2R)-1-methylpiperidin-2-yl]formamido}-N-(pent-4-yn-1-yloxy)pentanamido]pentyl]-1,3-thiazol-4-yl}formamido)-5-{4-[(2R)-2-amino-4-carboxybutanamido]phenyl}-2,2-dimethylpentanoic Acid], the IC50 (HCT15 cells; HCT-15, read-out: HCT-15 IC50) was 82.7 nM.

CCCCCCN(C(=O)[C@@H](NC(=O)[C@H]1CCCCN1C)[C@@H](C)CC)[C@H](C[C@@H](OC(C)=O)c1nc(C(=O)NS(=O)(=O)Cc2ccc(N)cc2)cs1)C(C)C [Compound P44, (1R,3R)-1-(4-{[(4-aminophenyl)methanesulfonyl]carbamoyl}-1,3-thiazol-2-yl)-3-[(2S,3S)—N-hexyl-3-methyl-2-{[(2R)-1-methylpiperidin-2-yl]formamido}pentanamido]-4-methylpentyl Acetate] showed an IC50 (HCT15 cells; HCT-15, read-out: HCT-15 IC50) of 25.8 nM.

With CCCCCCN(C(=O)[C@@H](NC(=O)[C@H]1CCCCN1C)[C@@H](C)CC)[C@H](C[C@@H](OC(C)=O)c1nc(C(=O)NS(=O)(=O)c2ccc(CN)cc2)cs1)C(C)C [Compound P42, (1R,3R)-1-(4-{[4-(aminomethyl)benzenesulfonyl]carbamoyl}-1,3-thiazol-2-yl)-3-[(2S,3S)—N-hexyl-3-methyl-2-{[(2R)-1-methylpiperidin-2-yl]formamido}pentanamido]-4-methylpentyl Acetate] the IC50 (HCT15 cells; HCT-15, read-out: HCT-15 IC50) was greater than 100 nM and the IC50 (HCT15 cells; [2]) was 48.4 nM.

In the case of CCCCCCN(C(=O)[C@@H](NC(=O)[C@H]1CCCCN1C)[C@@H](C)CC)[C@H](C[C@@H](OCC)c1nc(C(=O)N[C@@H](Cc2ccc(N)cc2)CC(C)(C)C(=O)O)cs1)C(C)C [Compound P8, (4S)-5-(4-aminophenyl)-4-({2-[(1R,3R)-1-ethoxy-3-[(2S,3S)—N-hexyl-3-methyl-2-{[(2R)-1-methylpiperidin-2-yl]formamido}pentanamido]-4-methylpentyl]-1,3-thiazol-4-yl}formamido)-2,2-dimethylpentanoic Acid], the IC50 (HCT15 cells; HCT-15, read-out: HCT-15 IC50) is reported as 0.24 nM and the IC50 (HCT15 cells; [2]) is reported as 0.06 nM.

With CCCCCCN(C(=O)[C@@H](NC(=O)[C@H]1CCCCN1C)[C@@H](C)CC)[C@H](C[C@@H](OC(C)=O)c1nc(C(=O)N[C@@H](Cc2ccc(F)cc2)CC(C)(C)C(=O)NS(=O)(=O)c2ccc(CN)cc2)cs1)C(C)C [Compound P46, (1R,3R)-1-(4-{[(2S)-4-{[4-(aminomethyl)benzenesulfonyl]carbamoyl}-1-(4-fluorophenyl)-4,4-dimethylbutan-2-yl]carbamoyl}-1,3-thiazol-2-yl)-3-[(2S,3S)—N-hexyl-3-methyl-2-{[(2R)-1-methylpiperidin-2-yl]formamido}pentanamido]-4-methylpentyl Acetate] the IC50 (HCT15 cells; HCT-15, read-out: HCT-15 IC50) was greater than 100 nM.

CCCCCCN(C(=O)[C@@H](NC(=O)[C@H]1C[C@H](C)CCN1C)[C@@H](C)CC)[C@H](C[C@@H](OC(C)=O)c1nc(C(=O)N[C@@H](Cc2ccc(N)c(F)c2)CC(C)(C)C(=O)O)cs1)C(C)C [Compound P13, (4S)-4-({2-[(1R,3R)-1-(acetyloxy)-3-[(2S,3S)-2-{[(2R,4R)-1,4-dimethylpiperidin-2-yl]formamido}-N-hexyl-3-methylpentanamido]-4-methylpentyl]-1,3-thiazol-4-yl}formamido)-5-(4-amino-3-fluorophenyl)-2,2-dimethylpentanoic Acid] showed an IC50 (HCT15 cells; HCT-15, read-out: HCT-15 IC50) of 0.15 nM and an IC50 (HCT15 cells; [2]) of 0.13 nM.

Work on CCCCCCN(C(=O)[C@@H](NC(=O)[C@H]1C[C@H](C)CCN1)[C@@H](C)CC)[C@H](C[C@@H](OCC)c1nc(C(=O)N[C@@H](Cc2ccc(N)c(F)c2)CC(C)(C)C(=O)O)cs1)C(C)C [Compound P17, (4S)-5-(4-amino-3-fluorophenyl)-4-({2-[(1R,3R)-1-ethoxy-3-[(2S,3S)—N-hexyl-3-methyl-2-{[(2R,4R)-4-methylpiperidin-2-yl]formamido}pentanamido]-4-methylpentyl]-1,3-thiazol-4-yl}formamido)-2,2-dimethylpentanoic Acid] yielded an IC50 (HCT15 cells; HCT-15, read-out: HCT-15 IC50) of 5.17 nM and an IC50 (HCT15 cells; [2]) of 0.67 nM.

CCCCCCN(C(=O)[C@@H](NC(=O)[C@@]1(C)CCCN1)[C@@H](C)CC)[C@H](C[C@@H](OC(=O)NC)c1nc(C(=O)N[C@@H](Cc2ccc(O)cc2)CC(C)(C)C(=O)O)cs1)C(C)C [Compound P23, (4S)-4-({2-[(1R,3R)-3-[(2S,3S)—N-hexyl-3-methyl-2-{[(2R)-2-methylpyrrolidin-2-yl]formamido}pentanamido]-4-methyl-1-[(methylcarbamoyl)oxy]pentyl]-1,3-thiazol-4-yl}formamido)-5-(4-hydroxyphenyl)-2,2-dimethylpentanoic Acid] showed an IC50 (HCT15 cells; HCT-15, read-out: HCT-15 IC50) of 3.6 nM and an IC50 (HCT15 cells; [2]) of 0.06 nM.

Work on CCCCCCN(C(=O)[C@@H](NC(=O)[C@H]1CCCCN1C)[C@@H](C)CC)[C@H](C[C@@H](O)c1nc(C(=O)N[C@@H](Cc2ccc(N)c(F)c2)CC(C)(C)C(=O)O)cs1)C(C)C [Compound P1, (4S)-5-(4-amino-3-fluorophenyl)-4-({2-[(1R,3R)-3-[(2S,3S)—N-hexyl-3-methyl-2-{[(2R)-1-methylpiperidin-2-yl]formamido}pentanamido]-1-hydroxy-4-methylpentyl]-1,3-thiazol-4-yl}formamido)-2,2-dimethylpentanoic Acid] yielded an IC50 (HCT15 cells; HCT-15, read-out: HCT-15 IC50) of 3 nM and an IC50 (HCT15 cells; [2]) of 0.26 nM.
